Reference: patent publication US20090048301A1 (IMCLONE SYSTEMS INCORPORATED, priority 2003, published 2009)

Tests used:
[1] = tested on: A431 human cancer cell line; test: Sulphorhodamine B (SRB) growth inhibition assay; assay type: cell-based; conditions: A-431, A431 cells, 48 hours, read-out: SRB Assay: μM required to inhibit tumor cell growth by 50% (GI50)
How it was run: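 A431 cells were seeded at 10,000 cells/well and preincubated 24 h, then exposed for 48 h at 37 °C, 5% CO2 to five log doses from 100 μM to 0.01 μM (final). After TCA fixation, SRB-stained protein was read at 515 nm. Percent growth was set against time-zero and DMSO control OD, and GI50 was taken at the 50% intercept.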

[2] = tested on: A431, human epidermoid carcinoma cells; test: Cell cycle analysis (FACS), mitotic arrest in G2/M; assay type: cell-based; conditions: Homo sapiens, A-431, 24 h, read-out: FACS Assay: concentration required to achieve inhibition in FACS assay
How it was run: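 A431 cells, 500,000/well at treatment, exposed to compounds at 0.01–1 μM final (0.1% DMSO) for 24 h. Ethanol-fixed cells RNase-treated (1 μg/ml, 37° C., 15 min), stained with propidium iodide (50 μg/ml, 30 min, RT). DNA ploidy by flow cytometry; mitotic arrest scored as G2/M accumulation.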

bovine tubulin = test: In vitro tubulin polymerization assay (turbidity at 340 nm); assay type: biochemical; conditions: 10 μM compound, 30 minute data point, vs 1% DMSO control
How it was run: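 Bovine tubulin (97%, <3% MAPs) at 3 mg/ml final in G-PEM pH 7 with 1 mM GTP and 5% glycerol, added cold to compound wells at 37° C (1% DMSO final). A340 read each minute for 30 min; percent inhibition from 30-min point versus DMSO control.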

| SMILES | GI50 [1] [µM] | minimal effective concentration [2] [µM] | Tubulin Assay: percent inhibition at 10 μM based on 30 minute data (bovine tubulin) [%] |
| --- | --- | --- | --- |
| COc1cc(Nc2ncccc2-c2nnc(Nc3ccc4c(c3)OCO4)[nH]2)cc(OC)c1 [Compound 30, {3-[5-(Benzo[1,3]dioxol-5-ylamino)-4H-[1,2,4]triazol-3-yl]-pyridin-2-yl}-(3,5-dimethoxy-phenyl)-amine] | 0.01 | 0.1 | 87 |
| c1cncc(CNc2ncccc2-c2nnc(Nc3ccc4c(c3)OCO4)[nH]2)c1 [Compound 31, {3-[5-(Benzo[1,3]dioxol-5-ylamino)-4H-[1,2,4]triazol-3-yl]-pyridin-2-yl}-pyridin-3-ylmethyl-amine] | 0.25 | 1 | 49 |
| COc1ccc(Nc2nnc(-c3cccnc3NCc3ccc4c(c3)OCO4)[nH]2)cc1 [Compound 54, Benzo[1,3]dioxol-5-ylmethyl-{3-[5-(4-methoxy-phenylamino)-4H-[1,2,4]triazol-3-yl]-pyridin-2-yl}-amine] | 7.5 | 10 | 38 |
| CS(=O)(=O)c1ccc(-c2nnc(-c3cccnc3NCc3ccc4c(c3)OCO4)[nH]2)cc1 [Compound 77, Benzo[1,3]dioxol-5-ylmethyl-{3-[5-(4-methanesulfonyl-phenyl)-4H-[1,2,4]triazol-3-yl]-pyridin-2-yl}-amine] | 4.5 | 10 | 28 |
| COc1ccc(-c2nnc(-c3cccnc3NCc3ccc4c(c3)OCO4)[nH]2)cc1OC [Compound 78, Benzo[1,3]dioxol-5-ylmethyl-{3-[5-(3,4-dimethoxy-phenyl)-4H-[1,2,4]triazol-3-yl]-pyridin-2-yl}-amine] | 3 | 1 | 55 |
| COc1cccc(-c2nnc(-c3cccnc3NCc3cccnc3)[nH]2)c1 [Compound 85, {3-[5-(3-Methoxy-phenyl)-4H-[1,2,4]triazol-3-yl]-pyridin-2-yl}-pyridin-3-ylmethyl-amine] | 8 | 1 | 61 |
| COc1ccc(-c2nnc(-c3cccnc3NCc3cccnc3)[nH]2)cc1OC [Compound 88, {3-[5-(3,4-Dimethoxy-phenyl)-4H-[1,2,4]triazol-3-yl]-pyridin-2-yl}-pyridin-3-ylmethyl-amine] | 1.2 | 10 | 29 |
| COc1cccc(Nc2nnc(-c3ccccc3NCc3ccncc3)[nH]2)c1 [Compound 115, (3-Methoxy-phenyl)-(5-{2-[(pyridin-4-ylmethyl)-amino]-phenyl}-4H-[1,2,4]triazol-3-yl)-amine] | 1.5 | 1 | 79 |
| CS(=O)(=O)c1ccc(-c2nnc(-c3ccccc3NCc3ccncc3)[nH]2)cc1 [Compound 129] | 0.025 | 0.1 | 84 |
| C#Cc1ccc(-c2nnc(-c3ccccc3NCc3ccncc3)[nH]2)cc1 [Compound 131, {2-[5-(4-Ethynyl-phenyl)-4H-[1,2,4]triazol-3-yl]-phenyl}-pyridin-4-ylmethyl-amine] | 0.06 | 0.1 | 46 |
| COc1cccc(Nc2nnc(-c3cccnc3Nc3cc(OC)cc(OC)c3)o2)c1 [Compound 176, (3,5-Dimethoxy-phenyl)-{3-[5-(3-methoxy-phenylamino)-[1,3,4]oxadiazol-2-yl]-pyridin-2-yl}-amine] | 40 | 10 | 27 |
| COc1cc(Nc2ncccc2-c2nnc(Nc3ccc4c(c3)OCO4)o2)cc(OC)c1 [Compound 177, {3-[5-(Benzo[1,3]dioxol-5-ylamino)-[1,3,4]oxadiazol-2-yl]-pyridin-2-yl}-(3,5-dimethoxy-phenyl)-amine] | 0.04 | 0.01 | 45 |
